This is an account of results in PMC3914206.

Assay [1] addresses T1, panel of 442 kinases (Homo sapiens, UniProt Q12866).
T1 construct: purchased KINOMEscan
T1 sequence (Q12866 21-999): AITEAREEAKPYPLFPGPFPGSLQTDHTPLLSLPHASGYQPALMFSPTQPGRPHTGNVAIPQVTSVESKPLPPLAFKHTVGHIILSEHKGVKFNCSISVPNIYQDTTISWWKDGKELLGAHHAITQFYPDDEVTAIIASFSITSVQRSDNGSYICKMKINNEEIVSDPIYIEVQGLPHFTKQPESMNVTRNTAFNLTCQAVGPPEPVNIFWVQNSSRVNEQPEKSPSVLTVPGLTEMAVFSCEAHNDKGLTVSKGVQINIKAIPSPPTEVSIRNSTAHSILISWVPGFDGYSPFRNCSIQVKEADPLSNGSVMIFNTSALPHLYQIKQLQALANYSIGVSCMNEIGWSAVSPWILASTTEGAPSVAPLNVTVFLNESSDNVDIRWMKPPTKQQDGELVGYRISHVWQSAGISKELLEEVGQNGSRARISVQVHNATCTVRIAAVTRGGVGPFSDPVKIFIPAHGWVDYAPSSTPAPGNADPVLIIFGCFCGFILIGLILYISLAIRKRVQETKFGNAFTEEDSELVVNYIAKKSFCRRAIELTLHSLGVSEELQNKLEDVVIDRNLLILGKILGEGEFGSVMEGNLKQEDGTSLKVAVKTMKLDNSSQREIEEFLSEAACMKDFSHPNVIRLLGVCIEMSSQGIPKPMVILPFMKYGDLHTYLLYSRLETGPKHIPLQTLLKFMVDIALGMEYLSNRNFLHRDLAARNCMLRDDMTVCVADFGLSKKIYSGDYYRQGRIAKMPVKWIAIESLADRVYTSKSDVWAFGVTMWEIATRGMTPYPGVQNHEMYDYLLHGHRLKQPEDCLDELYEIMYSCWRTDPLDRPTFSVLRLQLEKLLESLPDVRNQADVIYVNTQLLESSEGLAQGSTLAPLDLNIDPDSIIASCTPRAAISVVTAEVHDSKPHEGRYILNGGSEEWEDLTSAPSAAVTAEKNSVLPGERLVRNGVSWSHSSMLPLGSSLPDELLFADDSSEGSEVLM
Type of assay: binding. The following applies: Compound Concentration 10 µM. The source says: (§1) We assessed the selectivity of members of this scaffold using the KINOMEscan methodology across a near comprehensive panel of 442 kinases [[18,27]].

The target of assay [2] is T2, panel of 442 kinases (Homo sapiens, UniProt Q02156).
T2 construct: purchased KINOMEscan
T2 sequence (Q02156 1-737): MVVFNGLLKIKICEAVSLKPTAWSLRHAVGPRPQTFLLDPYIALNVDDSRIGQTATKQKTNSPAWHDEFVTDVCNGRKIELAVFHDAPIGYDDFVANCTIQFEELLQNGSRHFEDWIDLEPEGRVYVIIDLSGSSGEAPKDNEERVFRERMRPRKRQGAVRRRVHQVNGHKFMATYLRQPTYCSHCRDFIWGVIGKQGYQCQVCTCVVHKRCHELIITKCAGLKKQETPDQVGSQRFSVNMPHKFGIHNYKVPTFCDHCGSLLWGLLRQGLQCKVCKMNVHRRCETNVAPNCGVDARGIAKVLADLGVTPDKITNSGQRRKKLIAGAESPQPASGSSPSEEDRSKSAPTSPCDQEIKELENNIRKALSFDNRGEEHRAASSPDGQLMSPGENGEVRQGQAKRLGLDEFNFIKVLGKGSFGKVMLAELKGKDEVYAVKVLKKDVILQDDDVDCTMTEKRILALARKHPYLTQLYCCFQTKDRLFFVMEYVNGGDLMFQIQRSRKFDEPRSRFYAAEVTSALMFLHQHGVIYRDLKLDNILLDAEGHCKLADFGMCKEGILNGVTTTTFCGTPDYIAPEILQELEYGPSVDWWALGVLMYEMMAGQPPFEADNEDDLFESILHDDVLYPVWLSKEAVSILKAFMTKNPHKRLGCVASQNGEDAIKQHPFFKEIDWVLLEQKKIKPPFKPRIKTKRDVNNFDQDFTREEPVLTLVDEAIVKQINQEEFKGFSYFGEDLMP
It is filed as binding. The following applies: Compound Concentration 10 µM.
Excerpt: as §1

Take `COc1cc(C(=O)N2CCC(N3CCN(C)CC3)CC2)ccc1Nc1ncc2c(n1)N(C)c1ccccc1C(=O)N2C` [15 (LRRK2-IN-1)]: on panel of 442 kinases [1], the “KINOMEscan: MERTK” value is recorded as 100. On panel of 442 kinases [2], the “KINOMEscan: PRKCE” value is 100. With `COc1cc(C(=O)N2CCC(N3CCN(C)CC3)CC2)ccc1Nc1ncc2c(n1)N1CCc3cccc(c31)C(=O)N2C` [Compound 24], the “KINOMEscan: PRKCE” value at panel of 442 kinases [2] worked out at 72. As for `COc1cc(C(=O)N2CCC(N3CCN(C)CC3)CC2)ccc1Nc1ncc2c(n1)N(C1CCCC1)c1ccccc1C(=O)N2C` [Compound 25, 11-cyclopentyl-2-((2-methoxy-4-(4-(4-methylpiperazin-1-yl)piperidine-1-carbonyl)phenyl)amino)-5-methyl-5H-benzo[e]pyrimido[5,4-b][1,4]diazepin-6(11H)-one], at panel of 442 kinases [1], the “KINOMEscan: MERTK” value was found to be 100. In addition, the “KINOMEscan: PRKCE” value at panel of 442 kinases [2] stood at 79.

`CCOc1cc(C(=O)N2CCC(N3CCN(C)CC3)CC2)ccc1Nc1ncc2c(n1)N(C1CCCC1)c1ccccc1C(=O)N2C` [Compound 26]: the “KINOMEscan: MERTK” value at panel of 442 kinases [1] came to 100. The “KINOMEscan: PRKCE” value on panel of 442 kinases [2] is on record as 98.
